Assay results taken from patent publication US6683095B2, “CDK inhibitors having 3-hydroxychromen-4-one structure” (LG Life Sciences Ltd., priority 2000, dated 2004).
pIC50: −log10 of the molar value.

Legend:
CDK4/cyclin D1 = molecular target: T1, CDK4/cyclin D1 (Homo sapiens, UniProt P11802); experiment: Inhibitory activity against CDK4 (CDK4/cyclin D1 kinase assay, GST-Rb substrate, 32P-ATP); format: biochemical; settings: 100 μM ATP, 30° C., 30 minutes
T1 construct: GST; made in house; host or cells: insect cell
Procedure: (§1) The activities of CDK2/cyclin A and CDK4/cyclin D1 were determined as follows. About 100 ng of enzyme was reacted in a total 100 μl of 20 mM Tris(pH 8.0), 100 mM NaCl, 10 mM MgCl2 buffer solution containing 20 μg of GST-Rb protein, 100 μM of ATP and 5 μCi of p^32-γ-ATP at 30° C. for 30 minutes. Then, EDTA was added to a concentration of 20 mM to stop the enzyme reaction. Subsequently, 30 μl of 50% glutathione bead (purchased from Pharmacia) was added to attach GST-Rb to the bead, which was washed three times with 20 mM Tris(pH 8.0), 100 mM NaCl, 10 mM EDTA solution, and then scintillation counting was carried out. To analyze the inhibitory activity of the compound, the inhibitor having a proper concentration was added to the enzyme reaction solution, and then the enzyme activity was measured according to the above method.

Acute oral toxicity test = settings: mouse, in vivo; oral administration, ICR male, observed 7 days, Litchfield-Wilcoxon method
Procedure: To determine the acute oral toxicities of the test compounds, solutions containing a compound in different concentrations from each other were administered orally to ICR male with a dose of 10 ml/kg body weight. After oral administration, lethality and symptoms for 7 days were observed, and LD50 (mg/kg) was calculated according to Litchfield-Wilcoxon method.

CDK2/cyclin A = molecular target: T2, CDK2/cyclin A (Homo sapiens, UniProt P24941); experiment: Inhibitory activity against CDK2 (CDK2/cyclin A kinase assay, GST-Rb substrate, 32P-ATP); format: biochemical; settings: 100 μM ATP, 30° C., 30 minutes
T2 construct: His; made in house; host or cells: insect cell (baculovirus co-infection)
Procedure: The inhibitory activity against CDK2 was measured by referring to Kitagawa, M. et al., Oncogene 9; 2549, 1994 and that against CDK4 was measured by referring to Carlson, B. A. et al., Cancer Research 56; 2473, 1996.
The part of amino acid positions 780 to 928 of C-terminus of human Rb protein was isolated, N-terminus thereof was labelled with GST protein, large amount thereof was expressed in bacteria and purified to be used as the substrate for the enzyme.
as §1
The inhibitory activity against CDK2 and CDK4 of the compound of formula (1) according to the present invention was represented as IC50 value (see the following Table 1).

T1 sequence (P11802 whole entry): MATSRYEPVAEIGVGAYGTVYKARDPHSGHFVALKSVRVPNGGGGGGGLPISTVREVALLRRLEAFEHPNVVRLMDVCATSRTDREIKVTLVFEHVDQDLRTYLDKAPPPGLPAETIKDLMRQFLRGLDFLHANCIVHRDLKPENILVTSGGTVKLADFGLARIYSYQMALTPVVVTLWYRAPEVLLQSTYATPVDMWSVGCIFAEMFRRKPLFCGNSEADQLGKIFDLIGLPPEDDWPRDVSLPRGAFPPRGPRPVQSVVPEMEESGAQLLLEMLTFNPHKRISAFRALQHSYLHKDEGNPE
T1 sequence (P24385 whole entry partner): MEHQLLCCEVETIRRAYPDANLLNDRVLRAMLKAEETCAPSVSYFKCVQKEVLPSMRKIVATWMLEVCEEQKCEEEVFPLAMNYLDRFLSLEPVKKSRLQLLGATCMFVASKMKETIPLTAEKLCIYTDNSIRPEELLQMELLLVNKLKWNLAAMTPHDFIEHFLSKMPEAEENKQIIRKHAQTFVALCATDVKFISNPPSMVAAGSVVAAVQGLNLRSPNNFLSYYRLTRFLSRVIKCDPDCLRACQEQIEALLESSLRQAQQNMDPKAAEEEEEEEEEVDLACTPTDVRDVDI

Row | SMILES | pIC50 (CDK4/cyclin D1) | LD50 at 7 days (Acute oral toxicity test) [mg/kg] | pIC50 (CDK2/cyclin A)
1 | Cc1cc(N2CCCS2(=O)=O)c2oc(-c3ccc(O)cc3)c(O)c(=O)c2c1 [Compound 15, 2-[3-hydroxy-2-(4-hydroxyphenyl)-6-methyl-4-oxo-4H-chromen-8-yl]-1λ^6-isothiazolidin-1,1-dione] | 6.26 | > 3000 | 6.60
2 | Cc1cc(N2CCCS2(=O)=O)c2oc(-c3ccc(O)c(Cl)c3)c(O)c(=O)c2c1 [Compound 17, 2-[2-(3-chloro-4-hydroxyphenyl)-3-hydroxy-6-methyl-4-oxo-4H-chromen-8-yl]-1λ^6-isothiazolidin-1,1-dione] | 6.71 | > 3000 | 6.73
3 | Nc1cc(N2CCCS2(=O)=O)c2oc(-c3ccc(O)c(Cl)c3)c(O)c(=O)c2c1 [Compound 35, 2-[6-amino-2-(3-chloro-4-hydroxyphenyl)-3-hydroxy-4-oxo-4H-chromen-8-yl]-1λ^6-isothiazolidin-1,1-dione] | 6.74 |  | 7.15
4 | CN(C)c1cc(N2CCCS2(=O)=O)c2oc(-c3ccc(O)c(Cl)c3)c(O)c(=O)c2c1 [Compound 36, 2-[2-(3-chloro-4-hydroxyphenyl)-6-(dimethylamino)-3-hydroxy-4-oxo-4H-chromen-8-yl]-1λ^6-isothiazolidin-1,1-dione] | 6.22 | > 3000 | 6.30
5 | CNc1cc(N2CCCS2(=O)=O)c2oc(-c3ccc(O)c(Cl)c3)c(O)c(=O)c2c1 [Compound 37, 2-[2-(3-chloro-4-hydroxyphenyl)-6-(methylamino)-3-hydroxy-4-oxo-4H-chromen-8-yl]-1λ^6-isothiazolidin-1,1-dione] | 6.74 | > 3000 | 6.70
6 | Cc1cc(C2CCN(C)CC2)c2oc(-c3ccc(O)c(Cl)c3)c(O)c(=O)c2c1 [Compound 38, 2-(3-chloro-4-hydroxyphenyl)-3-hydroxy-6-methyl-8-(1-methyl-4-piperidinyl)-4H-chromen-4-one] | 6.92 | > 3000 | 6.30
7 | Cc1cc(-c2ccncc2)c2oc(-c3ccc(O)c(Cl)c3)c(O)c(=O)c2c1 [Compound 39, 2-(3-chloro-4-hydroxyphenyl)-3-hydroxy-6-methyl-8-(4-pyridinyl)-4H-chromen-4-one] | 6.55 |  | 6.89
8 | Cc1cc(-c2cc[n+](C)cc2)c2oc(-c3ccc(O)c(Cl)c3)c(O)c(=O)c2c1 [Compound 40, 4-[2-(3-chloro-4-hydroxyphenyl)-3-hydroxy-6-methyl-4-oxo-4H-chromen-8-yl]-1-methylpyridinium bromide] | 6.51 | > 3000 | 6.15
9 | Cc1cc(C2CCN(C)CC2)c2oc(-c3ccc(O)cc3)c(O)c(=O)c2c1 [Compound 41, 2-(4-hydroxyphenyl)-3-hydroxy-6-methyl-8-(1-methyl-4-piperidinyl)-4H-chromen-4-one] | 6.82 |  | 6.25
10 | Cc1cc(C2CCN(C)CC2)c2oc(-c3ccc(O)c(C)c3)c(O)c(=O)c2c1 [Compound 42, 3-hydroxy-2-(4-hydroxy-3-methylphenyl)-6-methyl-8-(1-methyl-4-piperidinyl)-4H-chromen-4-one] | 6.19 |  | 6.75
11 | Cc1cc(C2CCN(C)CC2)c2oc(-c3ccc(O)c(C(F)(F)F)c3)c(O)c(=O)c2c1 [Compound 43, 3-hydroxy-2-(4-hydroxy-3-trifluoromethylphenyl)-6-methyl-8-(1-methyl-4-piperidinyl)-4H-chromen-4-one] | > 6.00 |  | 5.20
12 | Cc1cc(C2CCN(CCO)CC2)c2oc(-c3ccc(O)c(Cl)c3)c(O)c(=O)c2c1 [Compound 44, 2-(3-chloro-4-hydroxyphenyl)-3-hydroxy-8-[1-(2-hydroxyethyl)-4-piperidinyl]-6-methyl-4H-chromen-4-one] | > 6.00 |  | > 6.00
13 | Cc1cc(C2CCN(CCN)CC2)c2oc(-c3ccc(O)c(Cl)c3)c(O)c(=O)c2c1 [Compound 45, 8-[1-(2-aminoethyl)-4-piperidinyl]-2-(3-chloro-4-hydroxyphenyl)-3-hydroxy-6-methyl-4H-chromen-4-one] | > 6.00 |  | > 6.00
